Experimental data published in publication PMC3836680 (Amino acids, 2011).

Target: S. pyogenes P5C reductase (Streptococcus pyogenes, UniProt Q9A1S9)
Assay: P5C reductase inhibition assay
Assay type: biochemical
Settings: read-out: Enzyme inhibition at 0.2 mM

`NC(P(=O)(O)O)P(=O)(O)O` [Compound 01, aminomethylenebisphosphonic acid] was tested, and the inhibition at 200 µM was 3 ± 2.1%.
